In data set [1] the target is T1, hBGT1 (Homo sapiens, UniProt P48065).
T1 construct: expressed in transfected cells
T1 sequence (P48065 1-614): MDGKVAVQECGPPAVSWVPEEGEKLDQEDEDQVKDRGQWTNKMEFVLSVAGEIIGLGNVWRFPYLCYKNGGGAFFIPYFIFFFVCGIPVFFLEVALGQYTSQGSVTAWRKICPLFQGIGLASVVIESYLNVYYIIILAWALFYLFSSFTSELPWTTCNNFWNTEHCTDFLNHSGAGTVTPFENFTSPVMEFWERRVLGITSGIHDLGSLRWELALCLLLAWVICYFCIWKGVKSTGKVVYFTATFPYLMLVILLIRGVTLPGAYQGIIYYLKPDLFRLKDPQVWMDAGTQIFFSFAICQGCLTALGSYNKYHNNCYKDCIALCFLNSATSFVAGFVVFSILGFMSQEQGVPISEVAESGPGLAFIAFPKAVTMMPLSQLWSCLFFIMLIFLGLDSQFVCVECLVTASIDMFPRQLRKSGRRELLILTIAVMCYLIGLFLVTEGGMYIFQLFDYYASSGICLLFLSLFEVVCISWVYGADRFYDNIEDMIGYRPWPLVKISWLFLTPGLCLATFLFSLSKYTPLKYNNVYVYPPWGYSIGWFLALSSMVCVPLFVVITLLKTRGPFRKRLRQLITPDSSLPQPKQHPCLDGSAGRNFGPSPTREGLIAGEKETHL
Briefly: [3H]GABA uptake assay, CHO cells stably expressing hBGT1. The conditions noted are these: read-out: inhibition of [3H]GABA uptake; screening concentration 100 μM; CHO cells. Format: cell-based. The protocol:
All selected compounds were tested for their ability to inhibit human BGT1 (hBGT1) function.
The CHO cells were placed in 96-well plates (approximately 50,000 cells/well) for about 24 h before the experiment. […] After incubation, cells were washed 3 times with 100 μL/well ice-cold assay buffer, 150 μL/well MicroScint20 (PerkinElmer) was subsequently added before the plate was shaken for at least 1 h. The radioactivity of each well of the plate was measured on a TopCount NXT scintillation counter. […] Data presented are the pooled data of at least three independent experiments with three technical replicates if not stated otherwise in figure legends. Concentration–response curves were fitted by nonlinear regression to the sigmoidal concentration–response model with GraphPad Prism v 9.0.

For data set [2], the system named is mouse models. The settings on record: cited from earlier work.
For data set [3], the system named is normal human astrocytes (NHA). Briefly: Confocal imaging of astrocyte morphology after incubation in PBS (non-GABA conditions). The conditions noted are these: 500 μM GABA with 500 μM compound 9 in PBS; 72 h. Format: cell-based. The protocol:
To this end, we tested whether blocking the transport of GABA under experimental non-GABA extracellular conditions may impair the homeostasis of these cells. […] Afterward, the cells were stained to visualize actin filaments using confocal microscopy. […] Nevertheless, further kinetic studies are necessary to verify this hypothesis.
NHA was grown on a coverslip in a 35 mm culture dish. After treatment, the cells were fixed (4% paraformaldehyde) and permeabilized (0.1% Triton X-100). Then, the samples were stained with Phalloidin-Atto 565 (Sigma-Aldrich, Inc.) according to the manufacturer’s protocol. Laser confocal microscope Nikon Eclipse Ti-E A1R-Si and Nikon NIS Elements AR software were used for cell imaging.

For data set [4], the system named is SH-SY5Y neuroblastoma cells. The settings on record: 24 h. The protocol: The model used mimics certain aspects of neurodegenerative diseases, where GABAergic dysfunction and neuronal death are prominent features. […] The neuroprotection studies were performed to determine the ability of compound 9 to prevent MPP^+ (1-methyl-4-phenylpyridinium) toxicity at a concentration of 1 mM, which was coincubated with compound 9 for 24 h. MPP^+ is a well-established neurotoxin that selectively damages neurons, making it a commonly used agent to model aspects of neurodegenerative conditions in vitro. It induces oxidative stress and mitochondrial dysfunction, leading to cell death. Cell viability was detected by a standard MTS assay.
Neuroprotection studies were performed according to the procedure described previously.[27] In brief, SH-SY5Y CRL-2266 (American Type Culture Collection, Manassas, VG) were seeded in microplate at a concentration of 2.5 × 10^4 cells/well in 100 μL of culture medium and cultured for 24 h at 37 °C and 5% CO2. […] Next, MPP^+ was added at a final concentration of 1 mM and the cells were placed in the incubator. After 24 h of the compound coincubation with MPP^+, the CellTiter 96 AQueous Nonradioactive Cell Proliferation Assay (MTS) was performed. The test was purchased from Promega (Madison, WI). The absorbance was measured using a microplate reader EnSpire (PerkinElmer, Waltham, MA) at 490 nm. All results were shown as mean ± SD. The statistical significances were calculated by GraphPad Prism 6.0 software.

In data set [5] the target is GABAA receptor. More on the design: method as in PMID 34595152. The conditions noted are these: agonist; cited from earlier work.
Data set [6] concerns the target T2, hBGT1 E52A (Homo sapiens, UniProt P48065, E52A).
T2 construct: host or cells: tsA201 cells (transformed HEK293), transient expression
T2 sequence (P48065 1-614 E52A): T1 sequence (P48065 1-614) with E52A
More on the design: method as in PMID 34595152. The conditions noted are these: ref 12; cited from earlier work.

Data set [7] has as its system BGT1. The conditions noted are these: cited from earlier work.
Data set [8] relates to SH-SY5Y neuroblastoma cells. Briefly: SH-SY5Y viability, MTS assay, 72 h. The class given is cell-based, human. The settings on record: 1 µM, reference cytostatic drug. The text has this:
OC(=O)[C@H]1CNCC[C@@H]1S OC(=O)CCCCCCN1C=CN=C1
OC(=O)C1CCNCC1 N[C@]12C[C@H]1[C@@H](CC2)C(O)=O
OC(=O)C1=CCNCC1 N[C@H]1C[C@@H]1CC(O)=O
O[C@@H]1CNCC[C@H]1C(O)=O N[C@@H]1C[C@@H]1CC(O)=O
OC(=O)CCCC1=NC=CN1 N[C@H]1C[C@H]1CC(O)=O
OC(=O)\C=C\C1=NC=CN1 NC[C@H]1C[C@H]1C(O)=O
OC(=O)\C=C\C1=CNC=N1 NC[C@@H]1C[C@@H]1C(O)=O
OC(=O)\C=C\C1=CN=CN1 NC[C@@H]1C[C@H]1C(O)=O
OC(=O)CCC1=CNC=N1 NC[C@H]1C[C@@H]1C(O)=O
OC(=O)CCC1=CN=CN1 NC1=CC=C(C=N1)C(O)=O
OC(=O)CCN1C=CN=C1 NC1=NC=C(C=N1)C(O)=O
OC(=O)CCCC1=NC=CN1 NC(=N)N1CCC(CC1)C(O)=O
S2. IC50 determination at GAT3 stable GAT3-CHO, compound 9
Figure S1. IC 50 determination for compound 9. Data represent one of three independent experiments, each performed in three technical replicates.
S3. […]
The influence of compound 9 on viability of SH-SY5Y neuroblastoma cells was determined using Aqueous Non-Radioactive Cell Proliferation Assay. […] Upon adding MTS and following 2h incubation, cell viability was calculated and […]
The effect of compound 9 on viability and proliferation of SH-SY5Y was determined with CellTiter 96® Aqueous Non-Radioactive Cell Proliferation Assay (MTS, Promega, Madison, WI, USA). […] Next MTS was added in fresh medium and after 2h of incubation the absorbance was measured at 490 nm using a microplate reader EnSpire (PerkinElmer, Waltham, MA USA). All results were shown as mean ± SD calculated from two independent experiments. […]

The structures appear in SMILES notation. Changes are numbered by the printed parent chain. Where two headings read alike, the source gives them in different places.

The term inhibition denotes how much of the control response was suppressed. In the case of `O=C(O)CC1CNCCO1` (stereo not drawn) [Compound 3], in data set [1], the inhibition at 100 µM was found to be 40%.

Turning to `NCc1cc(C(=O)O)[nH]n1` [Compound 11], the inhibition at 100 µM in data set [1] came out at 26%.

Turning to `Cc1ccsc1C(=CCCN(C)C1CCCc2o[nH]c(=O)c21)c1sccc1C` (stereo not drawn) [EF1502], the anticonvulsant properties entry in data set [2] (ref 13) was “anticonvulsant properties”. The “anticonvulsant effect when coadministered with tiagabine” value in data set [2] (ref 14) was “synergistic effect”.

Turning to `NCCCC(=O)O` [GABA, γ-Aminobutyric acid, reference compound], the “effect on compound 9-induced morphological changes of astrocytes” value in data set [3] is listed as “prevented these changes”. Also, in data set [4] (GABA 10 μM, positive control, 1 mM MPP+), the “cell viability compared to MPP+ alone” value is “significantly increased cell viability”.

With `C[n+]1ccc(-c2ccccc2)cc1` [MPP^+, 1-methyl-4-phenylpyridinium, reference compound], in data set [4] (neurotoxin 1 mM), the “viability of SH-SY5Y cells” value is recorded as “significantly reduced the viability”.

Broadly, the EC50 is the concentration giving half of the maximal effect. A word on the IC50: it is the concentration needed to halve the response being measured. Consider `N[C@@]12CC[C@H](C(=O)O)[C@@H]1C2` [bicyclo-GABA, (1S,2S,5R)-5-aminobicyclo[3.1.0]hexane-2-carboxylic acid], for which, in data set [5], the EC50 was 5.1 µM. In addition, the “change in activity on substitution of Glu52 with alanine” value in data set [6] is on record as “drastic increase in activity”. Besides, the IC50 in data set [7] (ref 11) was 0.59 µM; in data set [7] (ref 12), 1.5 µM.

For the compound `COc1cccc2c1C(=O)c1c(O)c3c(c(O)c1C2=O)C[C@@](O)(C(=O)CO)C[C@@H]3O[C@H]1C[C@H](N)[C@H](O)[C@H](C)O1` [doxorubicin, reference compound], in data set [8], the “impact on SH-SY5Y viability” value is “significantly decreased SH-SY5Y viability”.

The values above are taken from PMC11587516 (ACS Chemical Neuroscience, 2024).
